Some targets named below: Carbonic anhydrase 4 (Homo sapiens, UniProt P22748); Carbonic anhydrase 1 (Homo sapiens, UniProt P00915); Carbonic anhydrase 9 (Homo sapiens, UniProt Q16790); Carbonic anhydrase 2 (Homo sapiens, UniProt P00918).
Assay [1] deals with Carbonic anhydrase 5A, mitochondrial (Homo sapiens, UniProt P35218).
Description: Inhibition of human carbonic anhydrase 5 by Lineweaver-Burk curves

Consider 9 compounds from ChEMBL document CHEMBL1641504, “Characterization and anions inhibition studies of an α-carbonic anhydrase from the teleost fish Dicentrarchus labrax” (Bioorg Med Chem, 2011).

By Ki is commonly meant the equilibrium dissociation constant of an inhibitor or competing ligand from its target. Low values mean a stronger hold on the target, high ones a looser hold on the target.

Carbonic anhydrase 1, sequence (P00915 whole entry): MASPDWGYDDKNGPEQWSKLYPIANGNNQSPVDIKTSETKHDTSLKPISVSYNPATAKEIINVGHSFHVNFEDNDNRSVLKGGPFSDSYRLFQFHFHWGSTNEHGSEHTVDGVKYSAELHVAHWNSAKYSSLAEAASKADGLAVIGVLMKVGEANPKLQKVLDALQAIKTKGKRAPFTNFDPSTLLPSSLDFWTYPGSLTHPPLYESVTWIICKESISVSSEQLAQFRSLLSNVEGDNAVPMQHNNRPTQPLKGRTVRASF
Carbonic anhydrase 4, sequence (P22748 whole entry): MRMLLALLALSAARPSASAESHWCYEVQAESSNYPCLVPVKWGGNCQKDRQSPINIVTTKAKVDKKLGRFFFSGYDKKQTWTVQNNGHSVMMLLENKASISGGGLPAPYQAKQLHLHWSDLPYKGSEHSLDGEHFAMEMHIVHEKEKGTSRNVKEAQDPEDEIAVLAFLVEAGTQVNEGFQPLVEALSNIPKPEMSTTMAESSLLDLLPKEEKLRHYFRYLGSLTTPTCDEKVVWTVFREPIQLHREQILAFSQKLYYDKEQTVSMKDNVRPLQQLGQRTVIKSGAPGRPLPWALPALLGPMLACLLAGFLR
Carbonic anhydrase 5A, mitochondrial, sequence (P35218 whole entry): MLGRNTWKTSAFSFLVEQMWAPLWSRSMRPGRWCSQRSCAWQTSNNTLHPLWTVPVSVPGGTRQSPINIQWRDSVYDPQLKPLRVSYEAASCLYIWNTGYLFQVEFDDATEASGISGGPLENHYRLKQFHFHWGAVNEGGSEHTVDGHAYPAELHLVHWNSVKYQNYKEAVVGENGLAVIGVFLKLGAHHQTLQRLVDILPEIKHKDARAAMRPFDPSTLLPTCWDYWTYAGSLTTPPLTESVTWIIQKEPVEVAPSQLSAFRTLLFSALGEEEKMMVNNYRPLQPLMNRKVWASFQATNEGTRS
Description for Carbonic anhydrase 1: Inhibition of human carbonic anhydrase 1 by Lineweaver-Burk curves
Description for Carbonic anhydrase 4: Inhibition of human carbonic anhydrase 4 by Lineweaver-Burk curves
Description for Carbonic anhydrase 9: Inhibition of human carbonic anhydrase 9 by Lineweaver-Burk curves

As for `O=S(=O)([O-])[O-].[Na+].[Na+]` [SODIUM SULFATE ANHYDROUS], the figures for the Ki (in assay [1]; at Carbonic anhydrase 4) were 680 mM and 9 mM, respectively.
Take `[I-].[K+]` [POTASSIUM IODIDE]: the Ki in assay [1] was 25 mM; on Carbonic anhydrase 1, 0.3 mM; on Carbonic anhydrase 4, 0.08 mM; on Carbonic anhydrase 9 it was 7 mM.
Take `[F-].[K+]` [POTASSIUM FLUORIDE]: the Ki amounted to 241 mM in assay [1], 0.07 mM at Carbonic anhydrase 4 and 48 mM on Carbonic anhydrase 9.
In assay [1], `O=NO` [SODIUM NITRITE] came in with a Ki of 16 mM.
Consider `[Br-].[K+]` [POTASSIUM BROMIDE], for which the Ki amounted to 50 mM in assay [1], 4 mM on Carbonic anhydrase 1, 0.09 mM at Carbonic anhydrase 4 and 16 mM at Carbonic anhydrase 9.
For `[Cl-].[K+]` [POTASSIUM CHLORIDE], the Ki on Carbonic anhydrase 2 is greater than 200 mM; in assay [1] it was 156 mM; at Carbonic anhydrase 1, 6 mM; at Carbonic anhydrase 4, 0.09 mM; at Carbonic anhydrase 9, 33 mM.
For the compound `O=[N+]([O-])[O-].[K+]` [POTASSIUM NITRATE], the Ki was 16 mM in assay [1], 7 mM at Carbonic anhydrase 1, 58.7 mM on Carbonic anhydrase 4 and 46 mM at Carbonic anhydrase 9.
As for `N#C[S-].[Na+]` [THIOCYANATE SODIUM], the figures for the Ki (in assay [1]; at Carbonic anhydrase 4; at Carbonic anhydrase 9) were 0.74 mM, 39 mM and 0.13 mM, respectively.
Consider `[N-]=[N+]=[N-]` [SODIUM AZIDE], for which the inhibition constant Ki came to 0.3 mM in assay [1] and 0.005 mM at Carbonic anhydrase 9.
